# Assays:
# [1] = tested on: barnyardgrass (Echinochloa crus-galli); test: Test B flooded paddy test, visual rating 0-100; conditions: Flood, 250 g ai/ha, applied to paddy water, rated after 13 to 15 days
# [2] = tested on: ducksalad (Heteranthera limosa); test: Test B flooded paddy test, visual rating 0-100; conditions: Flood, 250 g ai/ha, applied to paddy water, rated after 13 to 15 days
# rice (Oryza sativa) = test: Test B flooded paddy test, visual rating 0-100 (0 no effect, 100 complete control); conditions: Flood, 250 g ai/ha, applied to paddy water, rated after 13 to 15 days
# [3] = tested on: ryegrass, Italian (Italian ryegrass, Lolium multiflorum); test: Test A preemergence, visual injury rating 0-100; format: in vivo; conditions: 500 g ai/ha
# [4] = tested on: foxtail, giant (giant foxtail, Setaria faberii); test: Test A preemergence, visual injury rating 0-100; format: in vivo
# [5] = tested on: ragweed (common ragweed, Ambrosia elatior); test: Test A preemergence, visual injury rating 0-100; format: in vivo
# [6] = tested on: pigweed (Amaranthus retroflexus); test: Test A preemergence, visual injury rating 0-100; format: in vivo
# kochia (Kochia scoparia) [7] = test: Test A preemergence, visual injury rating 0-100; format: in vivo
# [8] = tested on: barnyardgrass (Echinochloa crus-galli); test: Test A postemergence, visual injury rating 0-100; format: in vivo; conditions: 0 to 100 scale
# [9] = tested on: ryegrass, Italian (Italian ryegrass, Lolium multiflorum); test: Test A postemergence, visual injury rating 0-100; format: in vivo; conditions: 0 to 100 scale
# [10] = tested on: foxtail, giant (giant foxtail, Setaria faberii); test: Test A postemergence, visual injury rating 0-100; format: in vivo; conditions: 0 to 100 scale
# [11] = tested on: ragweed (common ragweed, Ambrosia elatior); test: Test A postemergence, visual injury rating 0-100; format: in vivo; conditions: 0 to 100 scale
# [12] = tested on: galium (catchweed bedstraw, Galium aparine); test: Test A postemergence, visual injury rating 0-100; format: in vivo; conditions: 0 to 100 scale
# corn (Zea mays) = test: Test A postemergence, visual injury rating 0-100; format: in vivo; conditions: 0 to 100 scale
# [13] = tested on: wheat (Triticum aestivum); test: Test A postemergence, visual injury rating 0-100; format: in vivo; conditions: 0 to 100 scale
# [14] = tested on: blackgrass (Alopecurus myosuroides); test: Test A postemergence, visual injury rating 0-100; format: in vivo; conditions: 0 to 100 scale
# [15] = tested on: pigweed (Amaranthus retroflexus); test: Test A postemergence, visual injury rating 0-100; format: in vivo; conditions: 0 to 100 scale
# kochia (Kochia scoparia) [16] = test: Test A postemergence, visual injury rating 0-100; format: in vivo; conditions: 0 to 100 scale
# [17] = tested on: barnyardgrass (Echinochloa crus-galli); test: Test A preemergence, visual injury rating 0-100 (0 no effect, 100 complete control); format: in vivo
Structure (SMILES),Barnyardgrass plant response rating (0 to 100 scale) [1],Ducksalad plant response rating (0 to 100 scale) [2],Rice plant response rating (0 to 100 scale) (rice (Oryza sativa)),"Ryegrass, Italian plant response rating (0 to 100 scale) [3]","Foxtail, Giant plant response rating (0 to 100 scale) ([4]; 125 g ai/ha)","Foxtail, Giant plant response rating (0 to 100 scale) ([4]; 500 g ai/ha)",Ragweed plant response rating (0 to 100 scale) ([5]; 125 g ai/ha),Ragweed plant response rating (0 to 100 scale) ([5]; 500 g ai/ha),Pigweed plant response rating (0 to 100 scale) ([6]; 125 g ai/ha),Pigweed plant response rating (0 to 100 scale) ([6]; 500 g ai/ha),Kochia plant response rating (0 to 100 scale) (kochia (Kochia scoparia) [7]; 125 g ai/ha),Kochia plant response rating (0 to 100 scale) (kochia (Kochia scoparia) [7]; 500 g ai/ha),Barnyardgrass plant response rating ([8]; 125 g ai/ha),Barnyardgrass plant response rating ([8]; 500 g ai/ha),"Ryegrass, Italian plant response rating ([9]; 125 g ai/ha)","Ryegrass, Italian plant response rating ([9]; 500 g ai/ha)","Foxtail, Giant plant response rating ([10]; 125 g ai/ha)","Foxtail, Giant plant response rating ([10]; 500 g ai/ha)",Ragweed plant response rating ([11]; 125 g ai/ha),Ragweed plant response rating ([11]; 500 g ai/ha),further results
CC1=[N+]([O-])C(C(=O)Nc2cccc(F)c2F)C(c2cccc(C3OCCO3)c2)C1 (racemic) [Compound 105],0,0,0,80,60,90,0,0,0,0,0,60,30,80,0,40,10,30,0,40,Galium plant response rating ([12]; 125 g ai/ha): 30; Galium plant response rating ([12]; 500 g ai/ha): 40; Corn plant response rating (corn (Zea mays); 125 g ai/ha): 0; Corn plant response rating (corn (Zea mays); 500 g ai/ha): 40; Wheat plant response rating ([13]; 125 g ai/ha): 0; Wheat plant response rating ([13]; 500 g ai/ha): 30; Blackgrass plant response rating ([14]; 125 g ai/ha): 20; Blackgrass plant response rating ([14]; 500 g ai/ha): 60; Pigweed plant response rating ([15]; 125 g ai/ha): 0; Pigweed plant response rating ([15]; 500 g ai/ha): 0; Kochia plant response rating (kochia (Kochia scoparia) [16]; 125 g ai/ha): 0; Kochia plant response rating (kochia (Kochia scoparia) [16]; 500 g ai/ha): 0; Barnyardgrass plant response rating (0 to 100 scale) ([17]; 125 g ai/ha): 30; Barnyardgrass plant response rating (0 to 100 scale) ([17]; 500 g ai/ha): 90
CC1=[N+]([O-])C(C(=O)Nc2cccc(F)c2F)C(c2cccc(C(F)(F)F)c2C)C1 (racemic) [Compound 106],60,70,0,90,90,100,0,40,0,60,0,70,70,90,70,70,80,90,30,70,Galium plant response rating ([12]; 125 g ai/ha): 40; Galium plant response rating ([12]; 500 g ai/ha): 70; Corn plant response rating (corn (Zea mays); 125 g ai/ha): 60; Corn plant response rating (corn (Zea mays); 500 g ai/ha): 90; Wheat plant response rating ([13]; 125 g ai/ha): 40; Wheat plant response rating ([13]; 500 g ai/ha): 70; Blackgrass plant response rating ([14]; 125 g ai/ha): 80; Blackgrass plant response rating ([14]; 500 g ai/ha): 70; Pigweed plant response rating ([15]; 125 g ai/ha): 0; Pigweed plant response rating ([15]; 500 g ai/ha): 20; Kochia plant response rating (kochia (Kochia scoparia) [16]; 125 g ai/ha): 0; Kochia plant response rating (kochia (Kochia scoparia) [16]; 500 g ai/ha): 30; Barnyardgrass plant response rating (0 to 100 scale) ([17]; 125 g ai/ha): 90; Barnyardgrass plant response rating (0 to 100 scale) ([17]; 500 g ai/ha): 90
CC1=[N+]([O-])C(C(=O)Nc2cccc(F)c2F)C(c2ccc(Cl)c(F)c2)C1 (racemic) [Compound 107],40,70,0,80,90,90,0,50,0,80,0,90,70,90,10,70,60,90,30,60,Galium plant response rating ([12]; 125 g ai/ha): 70; Galium plant response rating ([12]; 500 g ai/ha): 70; Corn plant response rating (corn (Zea mays); 125 g ai/ha): 30; Corn plant response rating (corn (Zea mays); 500 g ai/ha): 80; Wheat plant response rating ([13]; 125 g ai/ha): 10; Wheat plant response rating ([13]; 500 g ai/ha): 60; Blackgrass plant response rating ([14]; 125 g ai/ha): 70; Blackgrass plant response rating ([14]; 500 g ai/ha): 70; Pigweed plant response rating ([15]; 125 g ai/ha): 0; Pigweed plant response rating ([15]; 500 g ai/ha): 30; Kochia plant response rating (kochia (Kochia scoparia) [16]; 125 g ai/ha): 20; Kochia plant response rating (kochia (Kochia scoparia) [16]; 500 g ai/ha): 20; Barnyardgrass plant response rating (0 to 100 scale) ([17]; 125 g ai/ha): 90; Barnyardgrass plant response rating (0 to 100 scale) ([17]; 500 g ai/ha): 90
CC1=[N+]([O-])C(C(=O)Nc2cccc(F)c2F)C(c2cc(C)cc(CF)c2)C1 (racemic) [Compound 108],0,0,0,90,90,100,0,70,0,70,20,90,70,80,40,70,70,90,30,50,Galium plant response rating ([12]; 125 g ai/ha): 50; Galium plant response rating ([12]; 500 g ai/ha): 70; Corn plant response rating (corn (Zea mays); 125 g ai/ha): 60; Corn plant response rating (corn (Zea mays); 500 g ai/ha): 90; Wheat plant response rating ([13]; 125 g ai/ha): 30; Wheat plant response rating ([13]; 500 g ai/ha): 70; Blackgrass plant response rating ([14]; 125 g ai/ha): 90; Blackgrass plant response rating ([14]; 500 g ai/ha): 90; Pigweed plant response rating ([15]; 125 g ai/ha): 0; Pigweed plant response rating ([15]; 500 g ai/ha): 20; Kochia plant response rating (kochia (Kochia scoparia) [16]; 125 g ai/ha): 0; Kochia plant response rating (kochia (Kochia scoparia) [16]; 500 g ai/ha): 20; Barnyardgrass plant response rating (0 to 100 scale) ([17]; 125 g ai/ha): 90; Barnyardgrass plant response rating (0 to 100 scale) ([17]; 500 g ai/ha): 100

# Reference: patent US11498899B2, “Nitrone herbicides” (FMC Corporation, priority 2016, dated 2022)
